Reference: US20260041679A1, “METHOD OF TREATING HYPERTENSION WITH THE ALDOSTERONE SYNTHASE INHIBITOR BAXDROSTAT” (CINCOR PHARMA, INC., priority 2022, published 2026)
Where two headings read alike, the source gives them in different places.

Columns and labels:
Assay type in all cases: in vivo, human
[1] = Multiple ascending dose study, pharmacokinetics (Example 2)
Description: This randomized, double-blind, placebo-controlled phase 1 study evaluated the safety, pharmacokinetics, and pharmacodynamics of multiple ascending doses of baxdrostat in healthy volunteers. Fifty-six subjects were randomized to receive oral baxdrostat (0.5, 1.5, 2.5, or 5.0 mg) or placebo once daily for ten days and were placed on either a low salt or normal salt diet for the duration of the study. In particular, subjects were randomized into 5 cohorts to receive baxdrostat or placebo once daily for 10 days. Cohorts 1 and 2 were placed on a low salt diet to stimulate aldosterone production and were administered 2.5 or 5.0 mg oral baxdrostat, respectively. Cohorts 1 and 2 also underwent an adrenocorticotropic hormone (ACTH) challenge to increase aldosterone and cortisol levels to evaluate the specificity of baxdrostat for targeting aldosterone synthase. Cohorts 3, 4, and 5 were placed on a normal salt diet and were administered 1.5, 2.5, or 0.5 mg oral baxdrostat, respectively. Blood samples were collected prior to and after dosing on days 1 and 10 for measurement of plasma baxdrostat concentrations to characterize single-dose and steady-state pharmacokinetics. Pharmacodynamic measurements included plasma aldosterone, cortisol, and electrolytes. Safety assessments included physical examination, electrocardiograms, orthostatic vital signs, and clinical laboratory evaluations.

[2] = Safety in subjects with varying degrees of renal function (Example 4)
Description: Safety was assessed throughout the study based on adverse events, physical examinations, ECG, seated and orthostatic vital signs, weight measurements, and clinical laboratory evaluations

[3] = Pharmacokinetics in subjects with moderate hepatic impairment vs normal hepatic function (Example 5); conditions: for CL renal / Cmax / AUC(0-inf) / Tmax: human, oral, 10 mg; for CL renal: plasma and urine, read-out: CLR, geometric mean (% CV) (converted); for CL renal / Cmax / AUC(0-inf) / Tmax / CL/F, geometric mean (% CV): single 10 mg; for Cmax / AUC(0-inf) / Tmax: plasma; for Cmax: read-out: Cmax, geometric mean (% CV); for AUC(0-inf): read-out: AUC(0-inf), geometric mean (% CV); for Tmax: read-out: Tmax, arithmetic mean (SD)
Description: Subjects with moderate hepatic impairment (Child-Pugh Category B, n=10) and healthy controls (n=10) were each given a single 10 mg oral dose of baxdrostat. Subjects were matched by age, sex, body mass index, race, and smoking status. Serial blood and urine samples were collected to determine plasma and urine concentrations of baxdrostat for 7 days postdose. Safety was assessed based on adverse events, clinical laboratory evaluations, vital signs, electrocardiogram and physical examinations.

[4] = Study 124 Part 1: safety, adverse events and serum potassium
Description: The safety objectives for both Parts 1 and 2 are to evaluate vital signs, standing blood pressure, heart rate, physical examinations, ECG, body weight, and clinical laboratory assessments, including standard safety chemistry panel, hematology, coagulation, and urinalysis.

[5] = control eGFR ≥60 mL/min (n = 10)
[6] = moderate to severe renal impairment (n = 11)
[7] = single 10 mg, all renal function groups
[8] = moderate hepatic impairment vs normal hepatic function
[9] = Part 1, 0.5 mg baxdrostat, n = 63
[10] = Part 1, 1 mg baxdrostat, n = 62
[11] = Part 1, 2 mg baxdrostat, n = 60

Q: What does the source list for CCC(=O)N[C@@H]1CCCc2c(-c3ccc4c(c3)CCC(=O)N4C)cncc21 [baxdrostat, (R)—N-(4-(1-methyl-2-oxo-1,2,3,4-tetrahydroquinolin-6-yl)-5,6,7,8-tetrahydroisoquinolin-8-yl) propionamide]?
A: plasma levels of baxdrostat vs dose ([1]; 0.5 to 5.0 mg once daily): increased proportionally with ascending doses; time of peak concentrations after dosing ([1]; 0.5 to 5.0 mg once daily): ≤ 4 h; half-life ([1]; human, plasma, oral, 0.5 to 5.0 mg once daily): 26 to 31 h; absorption ([1]; oral, healthy subjects): rapidly absorbed; Diarrhea, n (%) ([2]; Total (n = 33)): 1 (3.0) n (%); Metabolic encephalopathy, n (%) ([2]; Total (n = 33)): 1 (3.0) n (%); Subjects with any TEAEs, n (%) ([2]; Total (n = 33)): 2 (6.1) n (%); Tremor, n (%) ([2]; Total (n = 33)): 1 (3.0) n (%); Diarrhea, n (%) [2, 5]: 1 (10.0) n (%); Metabolic encephalopathy, n (%) [2, 5]: 0 (0.0) n (%); Subjects with any TEAEs, n (%) [2, 5]: 1 (10.0) n (%); Tremor, n (%) [2, 5]: 0 (0.0) n (%); Diarrhea, n (%) ([2]; kidney failure (n = 12)): 0 (0.0) n (%); Subjects with any TEAEs, n (%) ([2]; kidney failure (n = 12)): 1 (8.3) n (%); Metabolic encephalopathy, n (%) ([2]; kidney failure (n = 12), considered severe and unrelated to the study drug): 1 (8.3) n (%); Tremor, n (%) ([2]; kidney failure (n = 12), unrelated to the study drug): 1 (8.3) n (%); Diarrhea, n (%) [2, 6]: 0 (0.0) n (%); Metabolic encephalopathy, n (%) [2, 6]: 0 (0.0) n (%); Subjects with any TEAEs, n (%) [2, 6]: 0 (0.0) n (%); Tremor, n (%) [2, 6]: 0 (0.0) n (%); deaths and drug-related treatment-emergent adverse events [2, 7]: no deaths and only one mild drug-related treatment-emergent adverse event (diarrhea); laboratory values, vital signs, physical examinations, ECGs [2, 7]: no clinically meaningful changes; CL renal ([3]; moderate hepatic impairment): 4.98 mL/min; CL renal ([3]; normal hepatic function): 6.02 mL/min; Cmax ([3]; moderate hepatic impairment (n = 10)): 119 ng/mL; AUC(0-inf) ([3]; moderate hepatic impairment): 3570 ng·h/mL; Tmax ([3]; moderate hepatic impairment): 2.15 h; Cmax ([3]; normal hepatic function (n = 10)): 104 ng/mL; AUC(0-inf) ([3]; normal hepatic function): 3780 ng·h/mL; Tmax ([3]; normal hepatic function): 2.55 h; AUC(0-inf), ratio of GLSM (90% CI) [3, 8]: 0.95 (0.73, 1.23); Cmax, ratio of GLSM (90% CI) [3, 8]: 1.1 (0.97, 1.32); CL/F, geometric mean (% CV) ([3]; moderate hepatic impairment): 2.80 (30.1) L/hr; CL/F, geometric mean (% CV) ([3]; normal hepatic function): 2.64 (24.7) L/hr; Mean Change in Serum Potassium From Baseline at Week 8 (SD) ([4]; 0.5 mg): −0.07 (0.37) mmol/L; Mean Change in Serum Potassium From Baseline at Week 8 (SD) ([4]; 1 mg): 0.26 (0.47) mmol/L; Mean Change in Serum Potassium From Baseline at Week 8 (SD) ([4]; 2 mg): 0.12 (0.48) mmol/L; increase in mean potassium ([4]; 2 mg dose): 0.1 mEq/L; potassium elevations>6.2 mEq/L ([4]; Part 1): No potassium elevations>6.2 mEq/L were recorded; share of patients receiving baxdrostat with potassium>6 mEq/L ([4]; Part 1): ~1.6%; treatment emergent SAEs ([4]; Part 1): two treatment emergent SAEs (2 patients) and neither were deemed related to baxdrostat; patients with isolated instances of moderately elevated potassium>6 mEq/L ([4]; Part 1, all baxdrostat doses): Three; AESI, % [4, 9]: 1.6%; AESI, e - Number of events [4, 9]: 1; AESI, n - Number of subjects [4, 9]: 1; SAEs, % [4, 9]: 0.0%; SAEs, e - Number of events [4, 9]: 0; SAEs, n - Number of subjects [4, 9]: 0; TEAEs Drug-Related, % [4, 9]: 6.3%; TEAEs Drug-Related, e - Number of events [4, 9]: 6; TEAEs Drug-Related, n - Number of subjects [4, 9]: 4; TEAEs Leading to death, % [4, 9]: 0.0%; TEAEs Leading to death, e - Number of events [4, 9]: 0; TEAEs Leading to death, n - Number of subjects [4, 9]: 0; TEAEs Leading to dosing discontinuation, % [4, 9]: 1.6%; TEAEs Leading to dosing discontinuation, e - Number of events [4, 9]: 1; TEAEs Leading to dosing discontinuation, n - Number of subjects [4, 9]: 1; TEAEs Leading to study discontinuation, % [4, 9]: 1.6%; TEAEs Leading to study discontinuation, e - Number of events [4, 9]: 1; TEAEs Leading to study discontinuation, n - Number of subjects [4, 9]: 1; TEAEs, % [4, 9]: 28.6%; TEAEs, e - Number of events [4, 9]: 30; TEAEs, n - Number of subjects [4, 9]: 18; AESI, % [4, 10]: 1.6%; AESI, e - Number of events [4, 10]: 1; AESI, n - Number of subjects [4, 10]: 1; SAEs, % [4, 10]: 1.6%; SAEs, e - Number of events [4, 10]: 1; SAEs, n - Number of subjects [4, 10]: 1; TEAEs Drug-Related, % [4, 10]: 9.7%; TEAEs Drug-Related, e - Number of events [4, 10]: 10; TEAEs Drug-Related, n - Number of subjects [4, 10]: 6; TEAEs Leading to death, % [4, 10]: 0.0%; TEAEs Leading to death, e - Number of events [4, 10]: 0; TEAEs Leading to death, n - Number of subjects [4, 10]: 0; TEAEs Leading to dosing discontinuation, % [4, 10]: 3.2%; TEAEs Leading to dosing discontinuation, e - Number of events [4, 10]: 2; TEAEs Leading to dosing discontinuation, n - Number of subjects [4, 10]: 2; TEAEs Leading to study discontinuation, % [4, 10]: 0.0%; TEAEs Leading to study discontinuation, e - Number of events [4, 10]: 0; TEAEs Leading to study discontinuation, n - Number of subjects [4, 10]: 0; TEAEs, % [4, 10]: 30.6%; TEAEs, e - Number of events [4, 10]: 42; TEAEs, n - Number of subjects [4, 10]: 19; AESI, % [4, 11]: 6.7%; AESI, e - Number of events [4, 11]: 4; AESI, n - Number of subjects [4, 11]: 4; SAEs, % [4, 11]: 1.7%; SAEs, e - Number of events [4, 11]: 1; SAEs, n - Number of subjects [4, 11]: 1; TEAEs Drug-Related, % [4, 11]: 10.0%; TEAEs Drug-Related, e - Number of events [4, 11]: 8; TEAEs Drug-Related, n - Number of subjects [4, 11]: 6; TEAEs Leading to death, % [4, 11]: 1.7%; TEAEs Leading to death, e - Number of events [4, 11]: 1; TEAEs Leading to death, n - Number of subjects [4, 11]: 1; TEAEs Leading to dosing discontinuation, % [4, 11]: 3.3%; TEAEs Leading to dosing discontinuation, e - Number of events [4, 11]: 2; TEAEs Leading to dosing discontinuation, n - Number of subjects [4, 11]: 2; TEAEs Leading to study discontinuation, % [4, 11]: 1.7%; TEAEs Leading to study discontinuation, e - Number of events [4, 11]: 1; TEAEs Leading to study discontinuation, n - Number of subjects [4, 11]: 1; TEAEs, % [4, 11]: 23.3%; TEAEs, e - Number of events [4, 11]: 27; TEAEs, n - Number of subjects [4, 11]: 14; hyperkalemia leading to trial discontinuation ([4]; active Baxdrostat groups): No instances of hyperkalemia led to trial discontinuation
